GI50 and TGI data for 14 compounds are collected here from PubChem BioAssay (NCI).

Several values for one entry are separate records, joined by “and”; a condition that tells them apart may be missing. Equal entries are not always repeated.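 All cell lines were grown in 96-well plates and treated with compound for 48 hours. GI50: concentration for 50% inhibition of growth. TGI: total growth inhibition.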 Some results are limits rather than exact numbers.

Common to all, as to test: inhibition of tumour cell growth, NCI panel, 48 h
Test [1] concerns HS 578T breast.
Test [2] concerns SK-MEL-2 melanoma.
Test [3] relates to NCI-H23 lung.
The test system of test [4] is PC-3 prostate.
Test [5] relates to HL-60(TB) leukemia.
Test [6] concerns OVCAR-4 ovarian.
For test [7], the system named is IGROV1 ovarian.
Test [8] relates to HCT-116 colon.
The test system of test [9] is MOLT-4 leukemia.
For test [10], the system named is SR leukemia.

Consider `COc1ccc2c(c1)c(-c1nc(-c3c[nH]c4ncccc34)cs1)cn2CCCN1CCCCC1`, for which the GI50 in test [1] is 2.05 µM; in [2], 1.85 µM; in test [3], 1.77 µM; in test [4], 1.7 µM; in test [5] it was 1.86 µM; in [6], 1.83 µM. Moreover, the TGI was 5.61 µM in test [1]; 3.72 µM in [2]; 3.52 µM in test [3]; 3.29 µM in [4]; 3.79 µM in test [5]; 4.35 µM in test [6].

Regarding `NCCc1ccc(S(=O)(=O)F)cc1`, the GI50 in [7] is 71.7 µM; in test [1] it was 82.8 µM; in test [2] it was 90.9 µM; in test [8], 53.7 µM; in test [3], more than 100 µM; in [4], 42.8 µM. For the same compound, the results for the GI50 in [9] and in test [6] were 32.2 µM and more than 100 µM, respectively. Also, the TGI in test [7], in [1], in test [2], in test [8], in test [3] and in test [4] was more than 100 µM in each case. In addition, the TGI in test [9] and in test [6] was more than 100 µM each time.

Regarding `CC(CC(=O)N1C(=O)C(C)(C)[C@@H](O)[C@H]1CC(C)C(Cl)(Cl)Cl)C(Cl)(Cl)Cl` (some centres undefined), the TGI in test [7], in [8], in [9], in test [5] and in test [6] was more than 100 µM in each case.

As for `Cc1ccc(Nc2nccc(N(C)c3ccc4c(C)n(C)nc4c3)n2)cc1S(N)(=O)=O`, the TGI in test [7] is more than 100 µM; in [8], more than 100 µM; in test [3], > 100 µM and > 10 µM and 93.1 µM; in test [4] it was more than 100 µM; in [10], > 100 µM and > 10 µM and 37.9 µM; in test [9], 24 µM and > 10 µM and 47.1 µM. For the same compound, the TGI in test [5] was 30.6 µM and > 10 µM and 34 µM; in test [6], more than 100 µM. In addition, the GI50 in test [2] was 4.67 µM and 1.46 µM and 4.62 µM; in test [8] it was 3.49 µM and 1.7 µM and 5.44 µM; in test [3], 4.03 µM and 2.92 µM and 6.49 µM; in test [4], 4.98 µM and 7.27 µM and 7.73 µM; in [10], 4.08 µM and 3.49 µM and 5.95 µM; in test [9], 4 µM and 2.26 µM and 5.27 µM. Further, the GI50 in [5] was 6.45 µM and 1.94 µM and 7.14 µM; in [6], 3.43 µM and 0.681 µM and 4.42 µM.

Consider `COc1cc(-c2nccc3cc(OC)c(OC)cc23)ccc1O`, for which the TGI in test [7] was more than 100 µM; in test [2], more than 100 µM; in [8] it was more than 100 µM; in test [3] it was more than 100 µM; in [10], more than 100 µM; in [9], 91.8 µM. The TGI is 67.4 µM in test [5] and more than 100 µM in test [6].

In the case of `CCOC(=O)C(=O)Nc1nc2c(OCC)cccc2s1`, the TGI in [7], in test [2], in test [8], in [3], in test [9] and in test [5] was more than 100 µM each time. In test [6], this compound yielded a TGI of more than 100 µM.

Turning to `CN1CN(C2OC(CO)C(O)C2O)c2nc(N)[nH]c(=O)c21` (centres undefined), the TGI in test [7], in test [2], in test [8], in test [3], in test [10] and in test [9] was more than 100 µM throughout. Besides, the TGI in test [5] and in test [6] was more than 100 µM in each case.

In the case of `CCCCCOCC(O)CO` (centres undefined), the TGI in test [7], in test [2], in test [8], in test [3] and in test [6] was more than 100 µM each time.

Take `NC(=NCc1ccccc1)C(N=Nc1ccccc1)C(=O)NCc1ccccc1` (centres undefined): the GI50 in test [7] is 3.42 µM; in test [1] it was 2.92 µM; in test [8], 1.76 µM; in test [3] it was 5 µM; in test [4], 1.84 µM; in test [9], 5.53 µM. Further, the GI50 is 4.64 µM in test [5] and 18.5 µM in [6]. For the same compound, the TGI in test [7] was 19.8 µM; in test [1], 13.9 µM; in test [8], 3.47 µM; in test [3], 21.9 µM; in test [4], 4.02 µM; in [9], more than 100 µM. In addition, the results for the TGI in test [5] and in test [6] were 27.4 µM and 45.1 µM, respectively.

Consider `C=C(CO)CC(O)c1cc(OC)ccc1OC` (centres undefined), for which the TGI in [7], in test [2], in test [9], in test [5] and in test [6] was more than 100 µM throughout.

As for `Cc1cccc(-n2c(N)c(-c3nc4ccccc4[nH]3)sc2=S)c1`, the TGI in test [7] was 78 µM; in [2] it was 62.3 µM; in [3], more than 100 µM; in [9], 54.6 µM; in test [5] it was 64 µM; in test [6], more than 100 µM.

Consider `COc1cc(OC)c(C(=O)c2cccs2)cc1N`, for which the TGI in [7], in test [2], in [3], in test [9] and in test [6] was more than 100 µM throughout.

In the case of `N#CC(C(=O)C(=O)Nc1ccccc1)c1ccccc1` (centres undefined), the TGI in [7], in test [2], in test [8], in test [3], in [10] and in [9] was more than 100 µM in each case. Also, the TGI in test [5] was more than 100 µM.

In the case of `COc1cc(Oc2c(C)c(Cl)c(OC)c(Cl)c2OC)c2c(c1Cl)COC2=O`, the TGI was more than 100 µM in test [7]; more than 100 µM in test [1]; more than 100 µM in test [8]; more than 100 µM in test [3]; 83.5 µM in test [10]; 69.1 µM in [9]. Further, the TGI in [5] is 31.6 µM; in [6], more than 100 µM.
